Experimental data from patent US20240247035A1, “STAPLED ANTIMICROBIAL PEPTIDES (STAMPS) AND USES THEREOF” (Lytica Therapeutics, Inc., priority 2021, published 2024).
In brackets after ≈: the same amount, converted by molar mass. Bridge positions count the residues as written; N and C are the ends. Square brackets hold non-standard residues; d marks the D form. Peptide text beside a SMILES is read from it. S5 = C=CCCC[C@](C)(N)C(=O)O; Orn = NCCC[C@H](N)C(=O)O; Dab = NCC[C@H](N)C(=O)O; Dap = NC[C@H](N)C(=O)O

Key:
[1] = 90 minute cytotoxicity assay (LDH release), renal toxicity; type: cell-based; conditions: human
Experimental: (§1) Cell culture: RPTEC were maintained in MEM media supplemented with growth factors. HEPG2 cell line was maintained in Eagle's Minimum Essential Medium (EMEM) supplemented with fetal bovine serum to a final concentration of 10%.
90 minute cytotoxicity assay: Cells were plated in a 96-well format, and after overnight incubation, media was replaced with fresh media. Serial dilutions of StAMPs from a 5 mg/mL water stock, or vehicle, were added to the cells in a final volume of 100 μl. After incubating at 37° C. for 90 min, 50 μl of cell culture media was transferred to a clear 96-well plate, incubated with 50 μl of lactate dehydrogenase (LDH) assay reagent for 10 min, and absorbance measured at 490 nm on a microplate reader.
(§2) Renal toxicity was measured after 90 minutes of incubation, while liver toxicity was measured after 48 hours of incubation with StAMPs. N/A=not tested.

[2] = 48 hours cytotoxicity assay (CellTiter-Glo), liver toxicity; type: cell-based; conditions: human
Experimental: as §1
48 hours cytotoxicity assay: Cells were plated in a 96-well format, and after 4 hour incubation to allow attachment, serial dilutions of StAMPs from a 5 mg/mL water stock, or vehicle, were then added to the cells in a final volume of 100 μl. After incubating at 37° C. for 48 hours, 100 μl of CellTiter-Glo® reagent was added to the cells, and the plates were incubated 10 minutes at room temperature. Luminescence was then measured on a microplate reader.
as §2

SMILES | IC50 at 90 min [1] | IC50 at 48 hours [2]
CC[C@H](C)[C@@H]1NC(=O)[C@@](C)(NC(=O)[C@H](CC(C)C)NC(=O)[C@H](CC(N)=O)NC(=O)[C@H](CCCCN)NC(=O)[C@H](CC(C)C)NC(=O)[C@H](CCCCN)NC(=O)[C@H](CCCCN)NC(=O)CNC(=O)[C@H](C)NC(=O)[C@]2(C)CCCC=CCCC[C@](C)(NC(=O)CN)C(=O)N[C@@H](Cc3ccccc3)C(=O)N[C@@H](CO)C(=O)N[C@@H](CCCCN)C(=O)N2)CCCC=CCCC[C@@](C)(C(=O)N[C@@H](CCCCN)C(=O)N[C@@H](CC(N)=O)C(N)=O)NC(=O)CNC(=O)[C@H](CO)NC1=O [compound 13] (H-G[S5]FSK[S5]AGKKLKNL[S5]ISG[S5]KN-NH2; staple 2-6, 15-19) | 17 µg/mL (≈ 7.42 µM) | 210 µg/mL (≈ 91.7 µM)
CC[C@H](C)[C@H](NC(=O)[C@H](CCN)NC(=O)[C@H](CCN)NC(=O)CNC(=O)[C@H](CCN)NC(=O)[C@]1(C)CCCC=CCCC[C@](C)(NC(=O)CN)C(=O)N[C@@H](Cc2ccccc2)C(=O)N[C@@H](CO)C(=O)N[C@@H](CCN)C(=O)N1)C(=O)N[C@@H](CCN)C(=O)N[C@@H](CC(N)=O)C(=O)N[C@@H](CC(C)C)C(=O)N[C@@]1(C)CCCC=CCCC[C@@](C)(C(=O)N[C@@H](CCN)C(=O)NCC(N)=O)NC(=O)CNC(=O)[C@H](CO)NC(=O)[C@H]([C@@H](C)CC)NC1=O [compound 14] (H-G[S5]FS[Dab][S5][Dab]G[Dab][Dab]I[Dab]NL[S5]ISG[S5][Dab]G-NH2; staple 2-6, 15-19) | 40 µg/mL (≈ 18.9 µM) | ~150 µg/mL (≈ 70.7 µM)
CC[C@H](C)[C@H](NC(=O)[C@H](CCCN)NC(=O)[C@H](CCCN)NC(=O)CNC(=O)[C@H](CCCN)NC(=O)[C@]1(C)CCCC=CCCC[C@](C)(NC(=O)CN)C(=O)N[C@@H](Cc2ccccc2)C(=O)N[C@@H](CO)C(=O)N[C@@H](CCCN)C(=O)N1)C(=O)N[C@@H](CCCN)C(=O)N[C@@H](CC(N)=O)C(=O)N[C@@H](CC(C)C)C(=O)N[C@@]1(C)CCCC=CCCC[C@@](C)(C(=O)N[C@@H](CCCN)C(=O)NCC(N)=O)NC(=O)CNC(=O)[C@H](CO)NC(=O)[C@H]([C@@H](C)CC)NC1=O [compound 15] (H-G[S5]FS[Orn][S5][Orn]G[Orn][Orn]I[Orn]NL[S5]ISG[S5][Orn]G-NH2; staple 2-6, 15-19) | 25 µg/mL (≈ 11.3 µM) | ~100 µg/mL (≈ 45.3 µM)
CC[C@H](C)[C@H](NC(=O)[C@H](CN)NC(=O)[C@H](CN)NC(=O)CNC(=O)[C@H](CN)NC(=O)[C@]1(C)CCCC=CCCC[C@](C)(NC(=O)CN)C(=O)N[C@@H](Cc2ccccc2)C(=O)N[C@@H](CO)C(=O)N[C@@H](CN)C(=O)N1)C(=O)N[C@@H](CN)C(=O)N[C@@H](CC(N)=O)C(=O)N[C@@H](CC(C)C)C(=O)N[C@@]1(C)CCCC=CCCC[C@@](C)(C(=O)N[C@@H](CN)C(=O)NCC(N)=O)NC(=O)CNC(=O)[C@H](CO)NC(=O)[C@H]([C@@H](C)CC)NC1=O [compound 16] (H-G[S5]FS[Dap][S5][Dap]G[Dap][Dap]I[Dap]NL[S5]ISG[S5][Dap]G-NH2; staple 2-6, 15-19) | > 200 µg/mL | ~200 µg/mL (≈ 98.2 µM)
CC[C@H](C)[C@H](NC(=O)[C@H](CCCCN)NC(=O)[C@H](CCCCN)NC(=O)CNC(=O)[C@H](CCCCN)NC(=O)[C@]1(C)CCCC=CCCC[C@](C)(NC(=O)CN)C(=O)N[C@@H](CCCCN)C(=O)N[C@@H](CO)C(=O)N[C@@H](CCCCN)C(=O)N1)C(=O)N[C@@H](CCCCN)C(=O)N[C@@H](CC(N)=O)C(=O)N[C@@H](CC(C)C)C(=O)N[C@@]1(C)CCCC=CCCC[C@@](C)(C(=O)N[C@@H](CCCCN)C(=O)N[C@@H](CC(N)=O)C(N)=O)NC(=O)CNC(=O)[C@H](CO)NC(=O)[C@H]([C@@H](C)CC)NC1=O [compound 17] (H-G[S5]KSK[S5]KGKKIKNL[S5]ISG[S5]KN-NH2; staple 2-6, 15-19) | 325 µg/mL (≈ 140 µM) | 172 µg/mL (≈ 73.9 µM)
